Patent US20150258043A1, “USE OF SPHINGOID LONG CHAIN BASES AND THEIR ANALOGS IN TREATING AND PREVENTING BACTERIAL INFECTIONS” (YEDA RESEARCH AND DEVELOPMENT CO. LTD., priority 2012, published 2015)

How the values were obtained:
[1] = tested on: P. aeruginosa strains 762, PA14 and ATCC 27853; assay: Pulmonary P. aeruginosa infection of CF and CerS2 null mice, inhalation treatment (bacteria in lung, sickness score); type: in vivo, mouse; settings: CF mice; C16-ceramide and sphingosine at a 1:1 molar ratio, 1 h before infection, strain 762
Procedure: (A,B) The number of bacteria in the lungs and the overall sickness score (C,D) of WT, CerS2 null and CF mice 3-4 h after intranasal infection with 1×10^8 CFU of P. aeruginosa strains 762 (A,C) and CF mice with strains PA14 and ATCC 27853. Mice were inhaled with 0.9% NaCl or acid ceramidase 1 h prior (b.i.) to infection, or with sphingosine or FTY720 1 h before (b.i.) or 1 h after (a.i.) infection. Sickness score 4, severely affected (unresponsive animal); score 3 affected, (heavy breathing, low body temperature, ruffled fur) score 2, moderately affected (ruffled fur, heavy breathing); score 1, slightly affected (ruffled fur); score 0, unaffected (healthy appearance). Data are means±s.d., n=4.
Pulmonary infection of CF or CerS2 mice was achieved by intranasal application of P. aeruginosa strains 762, ATCC 27853 or PA14. Mice inhaled acid ceramidase, sphingosine, FTY720 or a combination of sphingosine and ceramide 1 hr before or after pulmonary infection. The number of bacteria in the lung was determined by culturing aliquots of lysed lungs on agar plates. Clinical symptoms of the infection were scored.
Inhalation was performed with a PARI Boy SX nebulizer (PARI GmbH, Starnberg, Germany). This nebulizer generates a fine aerosol mist by pumping the fluid with an air jet. The mice inhaled the aerosol via a mask that is part of an oral inhalation device for children (LL-Nebulizer); the mask was clipped at the sides to cover only the mouse's nose and the surrounding part of the face. […]
P. aeruginosa were grown for 14 to 14.5 h on fresh tryptic soy agar (TSA) plates (Becton Dickinson Biosciences, Germany). […] The bacterial OD was determined, and the bacteria were diluted in prewarmed H/S to a concentration of 1×10^8 CFU per 20 μL. […]
Lungs were removed, homogenised and lysed for 10 min in 5 mg/ml saponin to release intracellular bacteria. […] Bacterial counts (CFU) were counted after 18 h.

P. aeruginosa strain 762 = assay: Incubation of bacteria with sphingosine and increasing C16-ceramide, CFU count; type: cell-based, Pseudomonas aeruginosa; settings: in the presence of 10 μM sphingosine
Procedure: FIGS. 4A-D. The ceramide/sphingosine ratio regulates P. aeruginosa growth. (A) Representative image of two independent experiments (left hand panel) after addition of Sytox green (1 μM) for 30 min in the absence or presence of 50 μM sphingosine or 50 μM C16-ceramide (C16-Cer) in 1% DMSO. Fluorescent and thus permeabilised bacteria were quantified (right hand panel). (B-D) The inhibitory effect of sphingosine on the growth of P. aeruginosa strain 762 is decreased in vitro and in vivo by C16-ceramide. (B) Bacteria were incubated with 10 μM sphingosine, and increasing concentrations of C16-ceramide, and growth was determined by counting colony forming unit (CFU) after 24 hrs growth on LB agar plates. Number of bacteria in the lung (C) and sickness score (D) of CF mice or WT mice inhaled with either sphingosine or a combination of sphingosine and C16-ceramide 1 h before (b.i.) with 10^8 P. aeruginosa CFU strain 762. Data are means±s.d., n=3 in (A,B) and n=4 in (C,D).
The in vitro effect of sphingosine in the presence or absence of ceramide was determined by incubation of early-logarithmic grown P. aeruginosa with sphingosine or ceramide or both in different ratios and measurement of surviving bacteria measuring the number of colony forming units 24 and 48 hrs after treatment.
Bacteria were incubated in vitro with sphingosine and increasing amounts of C16-ceramide. […]

With `CCCCCCCCCCCCC/C=C/[C@@H](O)[C@H](CO)NC(=O)CCCCCCCCCCCCCCC` [C16-ceramide] the “effect of co-inhaled C16-ceramide on protection by sphingosine” value [1] was “abrogated the protective effect of sphingosine and restored susceptibility to P. aeruginosa infection” and the “C16-ceramide concentration restoring bacterial growth” value (P. aeruginosa strain 762) was no less than 10 µM.
